# pIC50: −log10 of the molar value.
# Experiments:
# PI3K = PI3K (Homo sapiens, UniProt P42336); assay: Fluorescence polarization assay for PI3K; format: biochemical; settings: PI3Kα; read-out: PI3Kα IC50;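 note: PI3K kinase reaction on PIP2 with ATP, 30-60 min, product sensed by GST-GRP with red probe in fluorescence polarization (mP), controls without enzyme and at zero time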
# prostate line LNCap = assay: In vitro cell culture growth assay (MTS), LNCap; format: cell-based, human; settings: LNCap cells, three days after drug treatment;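 note: viable cell density read by absorbance at 490 nm, growth expressed as percent of vehicle-treated cells on the same plate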
# breast line MDA468 = assay: In vitro cell culture growth assay (MTS), MDA468; format: cell-based, human; settings: Homo sapiens, 72 h, MDA468 cells, three days after drug treatment
# Outline: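 Three-day drug treatment starting 1 day post-plating; viable cells quantified via MTS metabolism (A490); effect normalised to in-plate vehicle controls as % growth.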
# PI3K, sequence (P42336 whole entry): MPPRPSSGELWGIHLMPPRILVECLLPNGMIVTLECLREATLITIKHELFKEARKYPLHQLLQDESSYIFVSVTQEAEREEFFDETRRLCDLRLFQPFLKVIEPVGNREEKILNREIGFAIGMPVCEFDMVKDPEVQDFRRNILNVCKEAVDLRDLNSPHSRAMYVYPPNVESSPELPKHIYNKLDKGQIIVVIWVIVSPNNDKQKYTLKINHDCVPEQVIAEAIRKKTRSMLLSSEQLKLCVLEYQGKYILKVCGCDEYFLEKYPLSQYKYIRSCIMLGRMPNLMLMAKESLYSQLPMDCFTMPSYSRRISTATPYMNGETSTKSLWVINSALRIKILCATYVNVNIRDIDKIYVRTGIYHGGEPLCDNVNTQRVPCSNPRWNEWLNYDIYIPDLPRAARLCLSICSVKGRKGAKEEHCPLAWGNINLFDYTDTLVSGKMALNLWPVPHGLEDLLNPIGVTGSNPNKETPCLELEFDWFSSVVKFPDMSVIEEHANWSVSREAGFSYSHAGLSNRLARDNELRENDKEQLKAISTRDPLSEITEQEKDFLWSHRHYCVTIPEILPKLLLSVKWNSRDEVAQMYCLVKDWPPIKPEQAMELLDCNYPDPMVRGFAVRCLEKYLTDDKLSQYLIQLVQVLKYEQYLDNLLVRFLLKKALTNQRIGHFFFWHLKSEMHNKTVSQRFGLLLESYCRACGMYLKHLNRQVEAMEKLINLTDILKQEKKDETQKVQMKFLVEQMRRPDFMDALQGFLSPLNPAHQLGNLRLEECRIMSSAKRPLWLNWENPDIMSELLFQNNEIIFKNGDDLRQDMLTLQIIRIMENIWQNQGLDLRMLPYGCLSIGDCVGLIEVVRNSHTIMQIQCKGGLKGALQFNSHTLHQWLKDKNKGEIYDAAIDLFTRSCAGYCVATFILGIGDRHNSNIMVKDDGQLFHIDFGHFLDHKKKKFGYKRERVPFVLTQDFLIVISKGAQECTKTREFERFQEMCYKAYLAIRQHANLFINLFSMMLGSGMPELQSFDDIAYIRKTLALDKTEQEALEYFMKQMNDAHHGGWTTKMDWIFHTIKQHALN
# PI3K, sequence (P27986 whole entry partner): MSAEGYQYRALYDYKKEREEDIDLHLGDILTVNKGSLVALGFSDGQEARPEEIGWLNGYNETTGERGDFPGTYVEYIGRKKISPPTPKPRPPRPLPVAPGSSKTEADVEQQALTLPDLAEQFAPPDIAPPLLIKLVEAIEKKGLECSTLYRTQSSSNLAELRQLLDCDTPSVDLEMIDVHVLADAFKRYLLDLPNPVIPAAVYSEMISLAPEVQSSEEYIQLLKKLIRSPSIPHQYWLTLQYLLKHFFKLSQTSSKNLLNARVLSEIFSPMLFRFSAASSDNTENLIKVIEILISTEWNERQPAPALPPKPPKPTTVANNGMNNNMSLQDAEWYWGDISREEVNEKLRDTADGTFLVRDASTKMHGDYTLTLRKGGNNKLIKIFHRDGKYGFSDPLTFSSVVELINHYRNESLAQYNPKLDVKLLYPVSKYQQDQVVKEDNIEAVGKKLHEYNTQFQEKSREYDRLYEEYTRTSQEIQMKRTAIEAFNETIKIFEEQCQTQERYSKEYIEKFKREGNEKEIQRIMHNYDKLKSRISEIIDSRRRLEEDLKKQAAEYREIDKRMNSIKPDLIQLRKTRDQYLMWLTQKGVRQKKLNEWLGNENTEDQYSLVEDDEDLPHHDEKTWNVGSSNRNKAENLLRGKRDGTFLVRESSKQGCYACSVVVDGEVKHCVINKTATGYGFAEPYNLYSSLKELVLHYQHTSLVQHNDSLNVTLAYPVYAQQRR
SMILES,pIC50 (PI3K),"pIC50 (prostate line LNCap; Homo sapiens, LNCaP, 72 h)",pIC50 (breast line MDA468),pIC50 (prostate line LNCap)
"CNC(=O)Nc1ccc(-c2nc(N3CCOCC3)c3cnn(C4CCN(C(=O)c5cccc(OC)c5)CC4)c3n2)cc1 [Compound 610, 1-(4-{1-[1-(3-methoxybenzoyl)piperidin-4-yl]-4-morpholin-4-yl-1H-pyrazolo[3,4-d]pyrimidin-6-yl}phenyl)-3-methylurea]",7.12,7.46,6.47,–
"CNC(=O)Nc1ccc(-c2nc(N3CCOCC3)c3cnn(C4CCN(C(=O)c5ccccc5OC)CC4)c3n2)cc1 [Compound 611, 1-(4-{1-[1-(2-methoxybenzoyl)piperidin-4-yl]-4-morpholin-4-yl-1H-pyrazolo[3,4-d]pyrimidin-6-yl}phenyl)-3-methylurea]",7.09,> 7.57,6.48,–
"CNC(=O)Nc1ccc(-c2nc(N3CCOCC3)c3cnn(C4CCN(C(=O)c5cccc(C)c5)CC4)c3n2)cc1 [Compound 612, 1-methyl-3-(4-{1-[1-(3-methylbenzoyl)piperidin-4-yl]-4-morpholin-4-yl-1H-pyrazolo[3,4-d]pyrimidin-6-yl}phenyl)urea]",7.14,> 7.57,7.57,–
"CNC(=O)Nc1ccc(-c2nc(N3CCOCC3)c3cnn(C4CCN(C(=O)c5ccc(C)cc5)CC4)c3n2)cc1 [Compound 613, 1-methyl-3-(4-{1-[1-(4-methylbenzoyl)piperidin-4-yl]-4-morpholin-4-yl-1H-pyrazolo[3,4-d]pyrimidin-6-yl}phenyl)urea]",7.38,> 7.57,7.07,–
"CNC(=O)Nc1ccc(-c2nc(N3CCOCC3)c3cnn(C4CCN(C(=O)c5ccc(C#N)cc5)CC4)c3n2)cc1 [Compound 614, 1-(4-{1-[1-(4-cyanobenzoyl)piperidin-4-yl]-4-morpholin-4-yl-1H-pyrazolo[3,4-d]pyrimidin-6-yl}phenyl)-3-methylurea]",7.05,6.82,6.66,–
"O=C(Nc1cccnc1)Nc1ccc(-c2nc(N3CCOCC3)c3cnn(C4CCN(Cc5cccnc5)CC4)c3n2)cc1F [Compound 618, 1-(2-fluoro-4-{4-morpholin-4-yl-1-[1-(pyridin-3-ylmethyl)piperidin-4-yl]-1H-pyrazolo[3,4-d]pyrimidin-6-yl}phenyl)-3-pyridin-3-ylurea]",7.27,7.40,6.82,–
"O=C(NCCF)Nc1ccc(-c2nc(N3CCOCC3)c3cnn(C4CCN(Cc5cccnc5)CC4)c3n2)cc1F [Compound 619, 1-(2-fluoroethyl)-3-(2-fluoro-4-{4-morpholin-4-yl-1-[1-(pyridin-3-ylmethyl)piperidin-4-yl]-1H-pyrazolo[3,4-d]pyrimidin-6-yl}phenyl)urea]",6.21,6.85,5.89,–
"O=C(Nc1ccc(-c2nc(N3CCOCC3)c3cnn(C4CCN(Cc5cccnc5)CC4)c3n2)cc1)Nc1ccsc1 [Compound 620, 1-(4-{4-morpholin-4-yl-1-[1-(pyridin-3-ylmethyl)piperidin-4-yl]-1H-pyrazolo[3,4-d]pyrimidin-6-yl}phenyl)-3-(3-thienyl)urea]",8.00,7.47,6.89,–
"O=C(Nc1ccccc1)Nc1ccc(-c2nc(N3CCOCC3)c3cnn(C4CCN(C(=O)c5ccccc5)CC4)c3n2)cc1 [Compound 623, 1-{4-[1-(1-benzoylpiperidin-4-yl)-4-morpholin-4-yl-1H-pyrazolo[3,4-d]pyrimidin-6-yl]phenyl}-3-phenylurea]",7.80,> 7.57,7.30,–
"O=C(Nc1ccc(-c2nc(N3CCOCC3)c3cnn(C4CCN(C(=O)c5ccccc5)CC4)c3n2)cc1)Nc1cccnc1 [Compound 624, 1-{4-[1-(1-benzoylpiperidin-4-yl)-4-morpholin-4-yl-1H-pyrazolo[3,4-d]pyrimidin-6-yl]phenyl}-3-pyridin-3-ylurea]",7.47,–,> 7.57,> 7.57

# — US20080234262A1 (Wyeth, priority 2007, published 2008)
